Data taken from PMC9481570, “A small molecule antagonist of SMN disrupts the interaction between SMN and RNAP II” (Nature Communications, 2022).

Test system: R-loops at ACTB gene locus
Experiment: R-loop DNA immunoprecipitation with GFP-HB along ACTB locus
Assay type: cell-based, human
Details: for GFP-HB DNA immunoprecipitation qPCR, ACTB position 332 / GFP-HB DNA immunoprecipitation qPCR, ACTB position 1671 / GFP-HB DNA immunoprecipitation qPCR, ACTB position 3560 / GFP-HB DNA immunoprecipitation qPCR, ACTB position 3752 / GFP-HB DNA immunoprecipitation qPCR, ACTB position 4657 / GFP-HB DNA immunoprecipitation qPCR, ACTB position 5590 / GFP-HB DNA immunoprecipitation qPCR, ACTB position -72: HEK293 cells transfected with GFP-HB; for R-loop signals at the 3′-end of the ACTB gene: HEK293 cells, GFP-HB DNA immunoprecipitation
Source text: Fig. 4 Effects of SMN antagonists on the interaction between SMN and RNAP II, RNAP II pause, and R-loop accumulation. a SMN antagonists disrupt binding of SMN to RNAP II. Data shown are representative of three independent experiments. b Illustration of ACTB gene and the qPCR amplification positions. c SMN antagonists reduce SMN association at ACTB gene locus. Quantification of SMN qPCR data from ChIP experiments using SMN antibody at the indicated ACTB amplification positions. The SMN levels in DMSO controls were set as 100%. d SMN antagonists lead to RNAP II pause. Quantification of RNAP II qPCR data from ChIP experiments using POLR2A antibody at the indicated ACTB amplification positions. e SMN knockout (KO) leads to R-loop accumulation. Representative single-plane images of Z-stacks of the R-loop levels in scramble vs SMN KO cells of three independent experiments. Scale bar: 5 μm. f Global nuclear R-loop accumulation in SMN KO cells. g SMN antagonists cause global nuclear R-loop accumulation. h SMN antagonists lead to R-loop accumulation at ACTB gene locus. Quantified DNA immunoprecipitation using primers along ACTB locus by using GFP antibody, in cell extracts that were transfected with GFP-RNase H1 R-loop-binding domain (GFP-HB) fusion construct for R-loop detection. a–h HEK293 cells; c, d, h data were presented as the mean ± S.E.M. of three independent experiments (*P < 0.05, **P < 0.01, ***P < 0.001 for the two-tailed Student’s t-test); f, g scatter plots representing data from single-cell and R-loop immunofluorescence analysis (number of cells = 377, 332, 295, 262, 265 for scramble, SMN KO, DMSO, Cmpd 1, Cmpd 2 condition, respectively; Mean ± Quartiles; ****P < 0.0001 for the two-tailed Mann–Whitney test; a.u.: arbitrary units). Source data are provided as a Source Data file.
HEK293 cells (ATCC, CRL-1573) were grown in DMEM (SLRI media facility) plus 10% FBS (Sigma, F1051). For analysis of SMN chemical antagonists, HEK293 cells were treated with DMSO or a series of concentrations (0, 2, 6, 10, 20, 30, 40, and 80 μM) of compound 1, compound 2 or negative compound 15 for 72 h. CRISPR-mediated SMN1 gene knockout was performed according to our previous study. Briefly, 2 μg of CRISPR/Cas9 plasmid (pCMV-Cas9-GFP), which expresses scrambled guide RNA, or guide RNA that targets the SMN1 gene exon1 (gRNA target sequence: […]) or exon3 (gRNA target sequence: […]) was transfected into HEK293 cells. Cells were sorted by BD FACSAria flow cytometry at Donnelly Center, University of Toronto 24 h after transfection, and single GFP-positive cells were seeded into a 48-well plate. The expression levels of SMN in each clone were detected by immunofluorescence. The transfection of GFP-RNase H1 R-loop-binding domain (GFP-HB) for R-loop detection into HEK293 cells was performed with the FuGENE Transfection reagent (Roche, E269A).
ChIP was performed using the EZ-ChIP™ A - Chromatin Immunoprecipitation Kit (Millipore, 17-371) according to the manufacturer’s instruction. Antibodies were used with a range of 1–2 μg, and IgG (Millipore, polyclonal antibody, 12-370) was used as a background control. After immunoprecipitation, genomic DNA was de-crosslinked in ChIP elution buffer containing 5 M NaCl at 65 °C overnight and purified with the Qiaex II kit (Qiagen, 20021), and eluted in water for PCR amplification. Immunoprecipitated and input DNAs were used as templates for qPCR. The qPCR primer sequences for ACTB gene are the same as described earlier[9] and shown in the Supplementary Table 2. For analysis of SMN chemical antagonists, HEK293 cells were treated with DMSO, compound 1 or compound 2 (a final concentration of 20 μM) for 72 h, before processing for ChIP.

Compound	GFP-HB DNA immunoprecipitation qPCR, ACTB position 332	GFP-HB DNA immunoprecipitation qPCR, ACTB position 1671	GFP-HB DNA immunoprecipitation qPCR, ACTB position 3560	GFP-HB DNA immunoprecipitation qPCR, ACTB position 3752	GFP-HB DNA immunoprecipitation qPCR, ACTB position 4657	GFP-HB DNA immunoprecipitation qPCR, ACTB position 5590	GFP-HB DNA immunoprecipitation qPCR, ACTB position -72	R-loop signals at the 3′-end of the ACTB gene
CCCn1c2c(c(=N)c3c1CCC3)CCC2 [Compound 2, 4-propyl-2,3,4,5,6,7-hexahydrodicyclopenta[b,e]pyridin-8(1H)-imine]	0.008454	0.01239	0.02386	0.02558	0.01308	0.01171	0.004979	significantly increased
Cn1c2c(c(=N)c3c1CCC3)CCC2 [Compound 1, 4-methyl-2,3,4,5,6,7-hexahydrodicyclopenta[b,e]pyridin-8(1H)-imine]	0.009604	0.01285	0.03192	0.04162	0.02409	0.01303	0.00357	significantly increased
